This note sets out measurements from patent publication US11976083B2, “Inhibitors of peptidylarginine deiminases” (Gilead Sciences, Inc., priority 2020, dated 2024).

In the assay the target is T1, human PAD4 (Homo sapiens, UniProt Q9UM07).
T1 construct: human PAD4 (NM_012387), A2-P663, was PCR amplified; His-SUMO (N, cleaved yes); made in house; host or cells: E. coli BL21(DE3)
Briefly: In vitro PAD4 BAEE biochemical assay. The following applies: BAEE substrate 3 mM, 5 nM PAD4, 2 mM calcium chloride; geometric mean of multiple experiments. Summed up: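 Recombinant PAD4 (5 nM final) with 2 mM CaCl2 was preincubated with compound for 30 min at 25 °C in MOPS pH 7.6 buffer with DTT, then reacted with 3 mM BAEE for 2 h at 25 °C. Released ammonia was detected fluorimetrically with o-phthalaldehyde/DTT; IC50 from four-parameter fit, geometric mean of experiments.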

T1 sequence (Q9UM07 2-663): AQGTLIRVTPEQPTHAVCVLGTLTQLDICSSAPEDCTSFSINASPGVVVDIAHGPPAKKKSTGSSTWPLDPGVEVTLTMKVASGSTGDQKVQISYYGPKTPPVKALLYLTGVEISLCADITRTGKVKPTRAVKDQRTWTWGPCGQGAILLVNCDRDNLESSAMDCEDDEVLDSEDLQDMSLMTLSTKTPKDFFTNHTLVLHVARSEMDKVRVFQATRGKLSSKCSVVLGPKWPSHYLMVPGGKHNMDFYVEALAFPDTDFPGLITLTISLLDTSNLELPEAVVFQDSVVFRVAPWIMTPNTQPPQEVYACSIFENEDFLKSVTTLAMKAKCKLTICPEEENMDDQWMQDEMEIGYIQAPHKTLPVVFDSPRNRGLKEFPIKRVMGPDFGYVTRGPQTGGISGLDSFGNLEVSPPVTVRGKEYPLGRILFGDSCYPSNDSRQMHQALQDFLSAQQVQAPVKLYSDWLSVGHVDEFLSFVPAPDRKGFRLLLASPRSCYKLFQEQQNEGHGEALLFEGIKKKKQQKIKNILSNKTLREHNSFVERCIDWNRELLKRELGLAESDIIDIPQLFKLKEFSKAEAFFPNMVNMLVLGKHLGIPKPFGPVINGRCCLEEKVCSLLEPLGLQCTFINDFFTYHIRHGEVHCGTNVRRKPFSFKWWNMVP

As to `COc1cc(C(=O)N2CCC[C@@H](N)C2)cc2nc(-c3cc4ccc5cc4n3CCCCC[C@H]3C[C@@H]3C(=O)N[C@@H]5C)n(C)c12` [Example 164, (2~{R},5~{S},7~{S})-14-[5-[(3~{R})-3-aminopiperidine-1-carbonyl]-7-methoxy-1-methyl-benzimidazol-2-yl]-2-methyl-3,13-diazatetracyclo[11.5.2.0^{5,7}.0^{16,20}] icosa-1(19),14,16(20),17-tetraen-4-one], the IC50 turned out to be 33 nM. With `C[C@H]1NC(=O)C(C)(C)CCCCCCn2c(-c3nc4cc(C(=O)N[C@H]5CNCC[C@@H]5F)ccc4n3C3CC3)cc3ccc1nc32` [Example 376, 1-cyclopropyl-~{N}-[(3~{S},4~{S})-4-fluoro-3-piperidyl]-2-[(11~{R})-8,8,11-trimethyl-9-oxo-1,10,19-triazatricyclo[10.5.2.0^{15,18}]nonadeca-12(19),13,15(18),16-tetraen-17-yl]benzimidazole-5-carboxamide], the IC50 was found to be 82 nM.

For the compound `COc1cc(C(=O)N2C[C@H](N)[C@@H]3CC[C@H]2C3)cc2nc(-c3cc4ccc5nc4n3CC(F)(F)CCC[C@]3(F)C[C@H]3C(=O)N[C@@H]5C)n(C)c12` [Example 448, (2~{R},5~{S},7~{S})-14-[5-[(1~{S},4~{R},5~{R})-4-amino-2-azabicyclo[3.2.1]octane-2-carbonyl]-7-methoxy-1-methyl-benzimidazol-2-yl]-7,11,11-trifluoro-2-methyl-3,13,19-triazatetracyclo[11.5.2.0^{5,7}.0^{16,20}] icosa-1(19),14,16(20),17-tetraen-4-one], the IC50 was 26 nM. The value for `COc1cc(C(=O)N2C[C@H]3CCCN[C@H]3C2)cc2nc(-c3cc4ccc5nc4n3CCCCCCC(C)(C)C(=O)N[C@@H]5C)n(C)c12` [Example 80, (11~{R})-17-[5-[(4~{a}~{R},7~{a}~{R})-1,2,3,4,4~{a},5,7,7~{a}-octahydropyrrolo[3,4-b]pyridine-6-carbonyl]-7-methoxy-1-methyl-benzimidazol-2-yl]-8,8,11-trimethyl-1,10,19-triazatricyclo[10.5.2.0^{15,18}]nonadeca-12(19),13,15(18),16-tetraen-9-one] was 255 nM; that for `COc1cc(C(=O)N2[C@H]3CC[C@@H]2[C@H](N)C3)cc2nc(-c3cc4ccc5nc4n3CCCCCCCCOc3ncccc3-5)n(C)c12` [Example 86, [(1~{R},2~{R},4~{S})-2-amino-7-azabicyclo[2.2.1]heptan-7-yl]-[7-methoxy-1-methyl-2-(8-oxa-6,17,23-triazatetracyclo[15.5.2.0^{2,7}.0^{20,24}]tetracosa-1(23),2,4,6,18,20(24),21-heptaen-18-yl)benzimidazol-5-yl]methanone] was 643 nM; that for `Cc1cc2c(cc1C(=O)N1[C@H]3CC[C@@H]1[C@H](N)C3)nc(-c1cc3ccc4nc3n1CCCCCCC(C)(C)C(=O)N[C@@H]4C)n2C` [Example 556, (11~{R})-17-[5-[(1~{R}, 2~{R},4~{S})-2-amino-7-azabicyclo[2.2.1]heptane-7-carbonyl]-1,6-dimethyl-benzimidazol-2-yl]-8,8,11-trimethyl-1,10,19-triazatricyclo[10.5.2.0^ {15,18}]nonadeca-12(19),13,15(18),16-tetraen-9-one] was 69 nM. The value for `C[C@H]1NC(=O)[C@H]2[C@H](CCCCCn3c(-c4nc5cc(C(=O)N[C@H]6CNCC[C@@H]6F)c(F)cc5n4C4CC4)cc4ccc1nc43)C2(F)F` [Example 394, 1-cyclopropyl-2-[(2~{R},5~{R},7~{S})-6,6-difluoro-2-methyl-4-oxo-3,13,19-triazatetracyclo[11.5.2.0^{5,7}.0^{16,20}]icosa-1(19),14,16(20),17-tetraen-14-yl]-6-fluoro-~{N}-[(3~{S},4~{S})-4-fluoro-3-piperidyl]benzimidazole-5-carboxamide] was 23 nM; that for `Cc1cc2c(cc1C(=O)N[C@H]1CNCC[C@@H]1F)nc(-c1cc3ccc4nc3n1CC(F)(F)/C=C/C[C@H]1C[C@@H]1C(=O)N[C@@H]4C)n2C` [Example 550, 2-[(2~{R},5~{S},7~ {S},9~{E})-11,11-difluoro-2-methyl-4-oxo-3,13,19-triazatetracyclo [11.5.2.0^{5,7}.0^{16,20}]icosa-1(19),9,14,16(20), 17-pentaen-14-yl]-~{N}-[(3~{S},4~{S})-4-fluoro-3-piperidyl]-1,6-dimethyl-benzimidazole-5-carboxamide] was 60 nM; that for `COc1cc(C(=O)N2CC[C@@H](OC)[C@@H](N)C2)cc2nc(-c3cc4ccc5nc4n3CCCCCCNC(=O)c3ncccc3-5)n(C)c12` [Example 675, 17-[5-[(3~{S},4~{R})-3-amino-4-methoxy-piperidine-1-carbonyl]-7-methoxy-1-methyl-benzimidazol-2-yl]-6,9,16,22-tetrazatetracyclo [14.5.2.0^{2,7}.0^{19,23}] tricosa-1(22),2,4,6,17,19(23), 20-heptaen-8-one] was 559 nM.

For `C[C@H]1NC(=O)C(C)(C)CCCCCCn2c(-c3nc4cc(C(=O)N[C@H]5CNCC[C@@H]5F)ccc4n3C)cc3ccc1nc32` [Example 500, ~{N}-[(3~{S},4~ {S})-4-fluoro-3-piperidyl]-1-methyl-2-[(11~{R})-8,8,11-trimethyl-9-oxo-1,10,19-triazatricyclo[10.5.2.0^ {15,18}]nonadeca-12(19), 13,15(18),16-tetraen-17-yl]benzimidazole-5-carboxamide], the IC50 was 90 nM. Next, `COc1cc(C(=O)N2[C@H]3CC[C@@H]2[C@H](N)C3)cc2nc(-c3cc4ccc5nc4n3CCCCCCNC(=O)CC5C)n(C)c12` (stereo partly drawn) [Example 227, 17-[5-[(1˜{R},2˜{R},4˜{S})-2-amino-7-azabicyclo[2.2.1]heptane-7-carbonyl]-7-methoxy-1-methyl-benzimidazol-2-yl]-11-methyl-1,8,19-triazatricyclo[10.5.2.0^{15,18}]nonadeca-12(19),13,15(18),16-tetraen-9-one]: 154 nM; `COc1cc(C(=O)N2CCC[C@@H](N)C2)cc2nc(-c3cc4ccc5nc4n3CCCCCC[C@@H]3CCN(C3=O)[C@@H]5C)n(C)c12` [Example 112, (2~{R},6~{R})-14-[5-[(3~{R})-3-aminopiperidine-1-carbonyl]-7-methoxy-1-methyl-benzimidazol-2-yl]-2-methyl-3,13,19-triazatetracyclo[11.5.2.1^{3,6}.0^{16,20}] henicosa-1(19),14,16(20),17-tetraen-21-one]: 81 nM. Consider `COc1cc(C(=O)N2[C@H]3CC[C@@H]2[C@H](N)C3)cc2nc(-c3cc4ccc5nc4n3CCCCOCC(=O)N3CCC[C@H]53)n(C)c12` [Example 133, (2~{R})-15-[5-[(1~{R},2~{R},4~{S})-2-amino-7-azabicyclo[2.2.1]heptane-7-carbonyl]-7-methoxy-1-methyl-benzimidazol-2-yl]-9-oxa-6,14,20-triazatetracyclo[12.5.2.0^{2,6}.0^{17,21}] henicosa-1(20),15,17(21),18-tetraen-7-one], for which the IC50 worked out at 47 nM. Next, `COc1cc(C(=O)N2CC[C@H]3CCN[C@H]3C2)cc2nc(-c3cc4ccc5nc4n3CCCCCCC(C)(C)C(=O)N[C@@H]5C)n(C)c12` [Example 79, (11~{R})-17-[5-[(3~{a}~{R},7~{a}~{R})-1,2,3,3~{a},4,5,7,7~{a}-octahydropyrrolo[2,3-c]pyridine-6-carbonyl]-7-methoxy-1-methyl-benzimidazol-2-yl]-8,8,11-trimethyl-1,10,19-triazatricyclo[10.5.2.0^{15,18}]nonadeca-12(19),13,15(18),16-tetraen-9-one]: 76 nM; `COc1cc(C(=O)N2C[C@H](N)[C@@H]3CC[C@H]2C3)cc2nc(-c3cc4ccc5nc4n3CCCCCC[C@](C)(F)C(=O)N[C@@H]5C)n(C)c12` [Example 949, (8~{S},11~{R})-17-[5-[(1~{S},4~{R},5~{R})-4-amino-2-azabicyclo[3.2.1]octane-2-carbonyl]-7-methoxy-1-methyl-benzimidazol-2-yl]-8-fluoro-8,11-dimethyl-1,10,19-triazatricyclo [10.5.2.0^{15,18}]nonadeca-12(19),13,15(18),16-tetraen-9-one]: 31 nM; `COc1cc(C(=O)N2CC[C@@H](OC)[C@@H](N)C2)cc2nc(-c3cc4ccc5nc4n3CCCCCc3cccc(F)c3C(=O)N[C@@H]5C)n(C)c12` [Example 360, (2~{R})-17-[5-[(3~{S},4~{R})-3-amino-4-methoxy-piperidine-1-carbonyl]-7-methoxy-1-methyl-benzimidazol-2-yl]-6-fluoro-2-methyl-3,16,22-triazatetracyclo[14.5.2.0^{5,10}.0^{19,23}] tricosa-1(22),5,7,9,17,19(23),20-heptaen-4-one]: 58 nM.

As for `COc1cc(C(=O)N2C[C@H](N)[C@@H]3CC[C@H]2C3)cc2nc(-c3cc4ccc5c(F)c4n3CC(F)(F)CCC[C@@H]3C[C@H]3C(=O)N[C@@H]5C)n(C)c12` [Example 437, (2~{R},5~{R},7~{R})-14-[5-[(1~{S},4~{R},5~{R})-4-amino-2-azabicyclo[3.2.1]octane-2-carbonyl]-7-methoxy-1-methyl-benzimidazol-2-yl]-11,11,19-trifluoro-2-methyl-3,13-diazatetracyclo[11.5.2.0^{5,7}.0^{16,20}] icosa-1(19),14,16(20),17-tetraen-4-one], the IC50 stood at 30 nM. Turning to `COc1cc(C(=O)N2C[C@H](N)[C@@H]3CC[C@H]2C3)cc2nc(-c3cc4ccc5nc4n3CCCCCc3ccc(F)c(F)c3C(=O)N[C@@H]5C)n(C)c12` [Example 897, (2~{R})-17-[5-[(1~{S),4~{R}, 5~{R})-4-amino-2-azabicyclo [3.2.1]octane-2-carbonyl]-7-methoxy-1-methyl-benzimidazol-2-yl]-6,7-difluoro-2-methyl-3,16,22-triazatetracyclo [14.5.2.0^{5,10}.0^{19,23}] tricosa-1(22),5(10),6,8,17, 19(23),20-heptaen-4-one], the IC50 stood at 40 nM.

As a reminder, the IC50 is the concentration that gives 50% inhibition.
